Patent US4049497A (priority 1974, dated 1977)
Values joined by “and” are separate entries in the source; they are usually repeats but may differ in a detail not shown here. Equal entries are not always repeated.

Legend:
[1] = test system: Klebsiella pneumoniae PCI 602; assay: Minimum inhibitory concentration on nutrient agar plates, 37° C., 17 hours; type: cell-based
[2] = test system: various bacteria and fungi; assay: Antibacterial and antifungal spectrum (overall); type: cell-based
Xanthomonas oryzae = type: cell-based; details: 37° C., 17 hours
Saccharomyces cerevisiae = assay: Minimum inhibitory concentration on nutrient agar plates with 1% glucose, 27° C., 40 hours; type: cell-based
Candida albicans 3147 = assay: as above; type: cell-based
Escherichia coli NIHJ = assay: Minimum inhibitory concentration on nutrient agar plates, 37° C., 17 hours; type: cell-based
[3] = test system: Staphylococcus aureus 209P; assay: as above; type: cell-based
Piricularia oryzae = type: cell-based
[4] = test system: Escherichia coli JR66/W677; assay: Minimum inhibitory concentration on nutrient agar plates, 37° C., 17 hours; type: cell-based
Escherichia coli K-12 = assay: as above; type: cell-based
[5] = Acute toxicity, intraperitoneal injection in mice; details: for toxicity: animal and man, as shown by LD50 in mice; for LD50: mice, intraperitoneal, 0.25-0.5% in 10% dimethylsulfoxide-water
[6] = test system: Aeromonas salmonecida ATCC 14174; assay: Minimum inhibitory concentration on nutrient agar plates, 37° C., 17 hours; type: cell-based
Xanthomonas citri = assay: as above; type: cell-based
Escherichia coli W677 = assay: as above; type: cell-based
[7] = Stability of activity in 50% aqueous ethanol, room temperature, 16 hours; storage and methanol stability; details: for stability in 50% aqueous ethanol: 50% aqueous ethanol of pH 2.5; for activity reduced to: 50% aqueous ethanol of pH 2.5, room temperature, 16 hours; for stability as solid powder: cold and dark place
[8] = test system: Pseudomonas aeruginosa No. 12; assay: Minimum inhibitory concentration on nutrient agar plates, 37° C., 17 hours; type: cell-based
[9] = test system: Vibrio anguillarum NCBM 6; assay: as above; type: cell-based
[10] = test system: Staphylococcus aureus or Escherichia coli; assay: Standard cup-plate assay of potency
leukemia L-1210 cells = assay: Chemotherapeutic effect against leukemia L-1210 in mice (survival); type: in vivo, mice (CDF 1 strain); details: i.p. once daily for 10 days
[11] = Partition between n-butanol and water; details: pH value of 2 to 7
Aspergillus niger = assay: Minimum inhibitory concentration on nutrient agar plates with 1% glucose, 27° C., 40 hours; type: cell-based
[12] = test system: Bacillus subtilis PCI 219; assay: Minimum inhibitory concentration on nutrient agar plates, 37° C., 17 hours; type: cell-based
[13] = test system: Staphylococcus aureus Smith; assay: as above; type: cell-based
[14] = isolated colorless powder (Examples 3-6)

Row | Compound | Minimum Inhibitory Concentration [1] | antibacterial and antifungal activity [2] | Minimum Inhibitory Concentration (Xanthomonas oryzae) | Minimum Inhibitory Concentration (Saccharomyces cerevisiae) | Minimum Inhibitory Concentration (Candida albicans 3147) | Minimum Inhibitory Concentration (Escherichia coli NIHJ) | Minimum Inhibitory Concentration [3] | Minimum Inhibitory Concentration (Piricularia oryzae) | Minimum Inhibitory Concentration [4] | Minimum Inhibitory Concentration (Escherichia coli K-12) | toxicity [5] | LD50 [5] | Minimum Inhibitory Concentration [6] | Minimum Inhibitory Concentration (Xanthomonas citri) | Minimum Inhibitory Concentration (Escherichia coli W677) | stability in 50% aqueous ethanol [7] | activity reduced to [7] | stability as solid powder [7] | Minimum Inhibitory Concentration [8] | Minimum Inhibitory Concentration [9] | further results
1 | COc1cc2c(cc1O)N=C[C@@H]1CC[C@H](O)N1C2=O [neothramycin A] | 50 Mcg./ml. | low antibacterial and antifungal activity | 50 Mcg./ml. | 50 Mcg./ml. | > 100 Mcg./ml. | 100 Mcg./ml. | > 100 Mcg./ml. | 50 Mcg./ml. | 100 Mcg./ml. | 100 Mcg./ml. | low toxicity | 20 to 30 mg/kg | 25 Mcg./ml. | > 100 Mcg./ml. | 50 Mcg./ml. | unstable | 25% | stable for a long period of time | > 100 Mcg./ml. | 50 Mcg./ml. | potency [10, 14]: 1000 u./mg.; potency ([10]; pure neothramycin A from Example 3 as authentic sample): 1000 units per mg; effects on the survival ratio (leukemia L-1210 cells): highly favorable effects; partition coefficient in n-butanol/water [11]: greater than 5; Minimum Inhibitory Concentration (Aspergillus niger): 100 Mcg./ml.; Minimum Inhibitory Concentration [12]: 100 Mcg./ml.; Minimum Inhibitory Concentration [13]: 50 Mcg./ml.
2 | COc1cc2c(cc1O)N=C[C@@H]1CC[C@@H](O)N1C2=O [neothramycin B] | 100 Mcg./ml. | low antibacterial and antifungal activity | 100 Mcg./ml. | > 100 Mcg./ml. | > 100 Mcg./ml. | 100 Mcg./ml. | > 100 Mcg./ml. | > 100 Mcg./ml. | > 100 Mcg./ml. | 100 Mcg./ml. | low toxicity | 20 to 30 mg/kg | 50 Mcg./ml. | > 100 Mcg./ml. | 100 Mcg./ml. | unstable | 22% | stable for a long period of time | > 100 Mcg./ml. | 100 Mcg./ml. | potency [10, 14]: 620 u./mg. and 835 u./mg.; effects on the survival ratio (leukemia L-1210 cells): highly favorable effects; partition coefficient in n-butanol/water [11]: greater than 5; Minimum Inhibitory Concentration (Aspergillus niger): > 100 Mcg./ml.; Minimum Inhibitory Concentration [12]: > 100 Mcg./ml.; Minimum Inhibitory Concentration [13]: 100 Mcg./ml.
